# Laboratory results reported in PubChem BioAssay AID1919015 (Molecular Pharmacology Branch, DTP, NCI, 2023).
# System: OVCAR-5 complex spheroids with HUVEC/MSC, viability, % test/control
# Test: Anticancer human tumor OVCAR-5 cell line growth inhibition [AhR];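 further: spheroids exposed to compounds for 7 days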;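 on viability, T/C: 100% = DMSO vehicle control wells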
# Conditions: for viability, T/C: stronger effect = lower value
# Source text: Multicellular complex tumor spheroid response to aryl hydrocarbon receptor antagonists in combination with a variety of drugs and investigational agents in selected tumor cell lines
# The current study was undertaken to assess response to aryl hydrocarbon receptor antagonists in combination with standard-of-care drugs and investigational agents in solid tumor complex spheroid models. Complex spheroids include a stromal component modeled by human endothelial cells (HUVEC) and fibroblasts modeled by human mesenchymal stem cells (MSCs). The concentration ranges selected for each drug and investigational agent were based upon clinically achievable concentrations if the clinical Cmax of the agent was known.
# Compounds. The drugs and investigational agents: BAY 2416964 (NSC825713), GNF351 (NSC835774), CH-223191 (NSC835775), CPI-455 (NSC825282), aza-TdCyd (NSC777586), decitabine (NSC127716), belinostat (NSC758774), entinostat (NSC756642), pevonedistat (NSC761192), tazemetostat (NSC777109), talazoparib (NSC765396), olaparib (NSC753686), selinexor (NSC780203), nedisertib (M3814, NSC802822), bortezomib (NSC756655), venetoclax (NSC766270), doxorubicin (NSC123127), elimusertib (BAY189344, NSC800525), ceralasertib (AZD6738, NSC777638), TAK-243 (NSC785004), alisertib (NSC759677), etoposide (NSC141540), topotecan (NSC609699), eribulin (NSC707389), gemcitabine (NSC613327), carboplatin (NSC241240), cisplatin (NSC119875), and SN-38 (NSC673596) were obtained from the National Cancer Institute (NCI) Developmental Therapeutics Program Chemical Repository (32). The FDA-approved anticancer drug set is available from the Developmental Therapeutics Program at https://dtp.cancer.gov/organization/dscb/obtaining/available plates.htm. […] The stock solutions were prepared in dimethyl sulfoxide (DMSO, Sigma-Aldrich, St. Louis, MO, cat. D2650), except for the platinum compounds which were prepared in saline (Quality Biological, Gaithersburg, MD, cat. 114-055-101), at 800-fold the tested concentration and stored at -70 degrees C prior to their use. All drugs and investigational agents were tested over a range starting from a high concentration at or near the clinical Cmax and decreasing in half-log increments. If the clinical Cmax for an agent had not been determined, the highest concentration tested was 10 microM (Table 1).
# Cell Culture. All cells were maintained in an incubator at 37 degrees C and 5% CO2 with 95% humidity. The PDC lines were cultured according to standard operating procedures established by the NCI PDMR (https://pdmr.cancer.gov). Briefly, all PDCs were thawed and cultured in Matrigel-coated flasks prepared with a working solution of 1X Ham's F-12 nutrient mix, without supplementation (Invitrogen, Waltham, MA, cat. 11765054), 100 U/mL penicillin-streptomycin (Invitrogen, cat. 15140122), and 2.5% Matrigel (Corning Inc., Corning, NY, cat. 354248) for the first three passages. All PDCs were cultured in complete DMEM/F-12 media containing advanced DMEM/F-12 (Invitrogen, cat. 12634028), 4.9% defined fetal bovine serum, heat inactivated (HyClone Laboratories Inc., Logan, UT, cat. SH30070.03HI), 389 ng/mL hydrocortisone (Sigma-Aldrich, cat. H4001), 9.7 ng/mL human EGF recombinant protein (Invitrogen, cat. PHG0313), 23.4 microg/mL adenine (Sigma-Aldrich, cat. A2786), 97.3 U/mL penicillin-streptomycin (Invitrogen, cat. 15140122), 1.9 mM L-glutamine (Invitrogen, cat. 25030081), and 9.7 microM Y-27632 dihydrochloride (Tocris Bioscience, Bristol, United Kingdom, cat. 1254). The PDCs were cultured in complete DMEM/F12 media without 10 microM Y-27632 dihydrochloride for at least two passages prior to the screen. The established cell lines NCI-H1341 and […] were cultured in DMEM/F-12, HEPES (Invitrogen, cat. 11330032), 5% defined fetal bovine serum (HyClone Laboratories Inc., cat. SH30070.03), ITS premix universal culture supplement [insulin (5 microg/mL), transferrin (5 microg/mL), and selenious acid (5 ng/mL)] […]
# [1] = curve of first compound, second compound 0.1 µM
# [2] = curve of first compound, second compound 0.316 µM
# [3] = curve of first compound, second compound 1 µM
# [4] = curve of first compound, second compound 3.16 µM
# [5] = curve of first compound, second compound 10 µM
# [6] = second compound 0.1 µM, first compound 0.0316 µM
# [7] = second compound 0.1 µM, first compound 0.1 µM
# [8] = second compound 0.1 µM, first compound 0.316 µM
# [9] = second compound 0.1 µM, first compound 1 µM
# [10] = second compound 0.1 µM, first compound 3.16 µM
# [11] = second compound 0.1 µM, first compound 10 µM
# [12] = second compound 0.316 µM, first compound 0.0316 µM
# [13] = second compound 0.316 µM, first compound 0.1 µM
# [14] = second compound 0.316 µM, first compound 0.316 µM
# [15] = second compound 0.316 µM, first compound 1 µM
# [16] = second compound 0.316 µM, first compound 3.16 µM
# [17] = second compound 0.316 µM, first compound 10 µM
# [18] = second compound 1 µM, first compound 0.0316 µM
# [19] = second compound 1 µM, first compound 0.1 µM
# [20] = second compound 1 µM, first compound 0.316 µM
# [21] = second compound 1 µM, first compound 1 µM
# [22] = second compound 1 µM, first compound 3.16 µM
# [23] = second compound 1 µM, first compound 10 µM
# [24] = second compound 3.16 µM, first compound 0.0316 µM
# [25] = second compound 3.16 µM, first compound 0.1 µM
# [26] = second compound 3.16 µM, first compound 0.316 µM
# [27] = second compound 3.16 µM, first compound 1 µM
# [28] = second compound 3.16 µM, first compound 3.16 µM
# [29] = second compound 3.16 µM, first compound 10 µM
# [30] = second compound 10 µM, first compound 0.0316 µM
# [31] = second compound 10 µM, first compound 0.1 µM
# [32] = second compound 10 µM, first compound 0.316 µM
# [33] = second compound 10 µM, first compound 1 µM
# [34] = second compound 10 µM, first compound 3.16 µM
# [35] = second compound 10 µM, first compound 10 µM
SMILES,IC50 [1],IC50 [2],IC50 [3],IC50 [4],IC50 [5],"viability, T/C [6]","viability, T/C [7]","viability, T/C [8]","viability, T/C [9]","viability, T/C [12]","viability, T/C [13]","viability, T/C [14]","viability, T/C [15]","viability, T/C [18]","viability, T/C [19]","viability, T/C [20]","viability, T/C [21]","viability, T/C [24]","viability, T/C [25]","viability, T/C [26]",further results
Cc1ccccc1N=Nc1ccc(NC(=O)c2ccnn2C)c(C)c1,–,–,–,–,–,–,–,–,–,–,–,–,–,–,–,–,–,–,–,–,"viability, T/C (compound 0.1 µM): 103% [middle of 20 runs]; viability, T/C (compound 0.316 µM): 108% [middle of 20 runs]; viability, T/C (compound 1 µM): 110% [middle of 20 runs]; viability, T/C (compound 3.16 µM): 113% [middle of 20 runs]; viability, T/C (compound 10 µM): 105% [middle of 20 runs]; IC50 (compound alone, run of 08/22/2022): > 10000 nM"
COc1cc(C2c3cc4c(cc3C(OC3OC5COC(C)OC5C(O)C3O)C3COC(=O)C23)OCO4)cc(OC)c1O (stereo unspecified) + CC(CO)NC(=O)c1cc(-c2ccc(Cl)cc2)nn(-c2cnn(C)c2)c1=O,3960 nM,3880 nM,5440 nM,3920 nM,3100 nM,106%,106%,100%,82.8%,105%,109%,101%,86%,115%,112%,107%,84.9%,98.9%,102%,98%,"viability, T/C [10]: 52.7%; viability, T/C [11]: 38.1%; viability, T/C [16]: 52.7%; viability, T/C [17]: 36.6%; viability, T/C [22]: 59.2%; viability, T/C [23]: 40.3%; viability, T/C [27]: 71.4%; viability, T/C [28]: 56.2%; viability, T/C [29]: 37.4%; viability, T/C [30]: 96.1%; viability, T/C [31]: 97.1%; viability, T/C [32]: 82.6%; viability, T/C [33]: 63.5%; viability, T/C [34]: 52.7%; viability, T/C [35]: 40.1%"
COc1cccc2c1C(=O)c1c(O)c3c(c(O)c1C2=O)CC(O)(C(=O)CO)CC3OC1CC(N)C(O)C(C)O1 (stereo unspecified) + CC(CO)NC(=O)c1cc(-c2ccc(Cl)cc2)nn(-c2cnn(C)c2)c1=O,267 nM,285 nM,347 nM,351 nM,326 nM,79.8%,62.8%,50%,23.5%,80%,63.9%,50.9%,23.3%,82.5%,71.5%,53.1%,23.8%,77%,70.1%,52.7%,"viability, T/C [10]: 3.18%; viability, T/C [11]: 0.94%; viability, T/C [16]: 2.8%; viability, T/C [17]: 0.91%; viability, T/C [22]: 2.66%; viability, T/C [23]: 0.86%; viability, T/C [27]: 22.9%; viability, T/C [28]: 1.63%; viability, T/C [29]: 1.01%; viability, T/C [30]: 72.7%; viability, T/C [31]: 76.2%; viability, T/C [32]: 49.5%; viability, T/C [33]: 15%; viability, T/C [34]: 0.79%; viability, T/C [35]: 1.12%"
Nc1ncn(C2CC(O)C(CO)O2)c(=O)n1 (stereo unspecified) + CC(CO)NC(=O)c1cc(-c2ccc(Cl)cc2)nn(-c2cnn(C)c2)c1=O,> 1000 nM,> 1000 nM,> 1000 nM,> 1000 nM,> 1000 nM,98%,88.5%,72.6%,62.4%,99%,83.2%,70.8%,62%,109%,91.6%,71.3%,66.4%,97.9%,83.7%,70.6%,"viability, T/C (second compound 0.1 µM, first compound 0.00316 µM): 107%; viability, T/C (second compound 0.1 µM, first compound 0.01 µM): 106%; viability, T/C (second compound 0.316 µM, first compound 0.00316 µM): 107%; viability, T/C (second compound 0.316 µM, first compound 0.01 µM): 107%; viability, T/C (second compound 1 µM, first compound 0.00316 µM): 116%; viability, T/C (second compound 1 µM, first compound 0.01 µM): 114%; viability, T/C (second compound 3.16 µM, first compound 0.00316 µM): 105%; viability, T/C (second compound 3.16 µM, first compound 0.01 µM): 99.4%; viability, T/C [27]: 59.2%; viability, T/C (second compound 10 µM, first compound 0.00316 µM): 97.6%; viability, T/C (second compound 10 µM, first compound 0.01 µM): 99.9%; viability, T/C [30]: 97.4%; viability, T/C [31]: 88.4%; viability, T/C [32]: 72.9%; viability, T/C [33]: 64.2%"
